Measurements reported in patent publication US10829520B2, “Beta-hairpin peptidomimetics” (POLYPHOR AG, priority 2015, dated 2020).
Where two headings read alike, the source gives them in different places. Where a SMILES comes first, the peptide text is derived from it. Bridges are numbered along the chain shown (N, C = ends). [ ]: non-standard residue; d: D form. aThr = C[C@H](O)[C@H](N)C(=O)O; Tle = CC(C)(C)[C@H](N)C(=O)O; Nle = CCCC[C@H](N)C(=O)O; Dab = NCC[C@H](N)C(=O)O; Dap = NC[C@H](N)C(=O)O; Aib = CC(C)(N)C(=O)O

Assays:
Format in all cases: cell-based
[1] = system: Acinetobacter baumannii 872842
[2] = system: Acinetobacter baumannii DSM 30008
Outline: (§1)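 MIC in μg/mL; CLSI microdilution; cation-adjusted Mueller-Hinton II with Polysorbate 80 (0.002%); 10^6 CFU/mL; 35° C, 18-20 h.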

Escherichia coli 926415 = system: Escherichia coli 926415
[3] = system: Escherichia coli ATCC 25922
Outline: as §1

[4] = system: Klebsiella pneumoniae 968733
[5] = system: Klebsiella pneumoniae SSI #3010
Outline: as §1

[6] = system: Pseudomonas aeruginosa ATCC 27853
Outline: as §1

[7] = system: human red blood cells (hRBC); test: Hemolysis of human red blood cells; conditions: 100 μg/mL
Outline: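 Percent hemolysis = OD540 of peptide-treated supernatant relative to the 2.5% Triton X-100 (100%) control, PBS containing 0.001% acetic acid defining 0%. Peptides tested at 100 μg/mL against 20% (v/v) washed human RBC, 1 h, 37 °C, 300 rpm.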

[8] = clinical isolate, Mueller-Hinton II broth, P-80 0.002% present

SMILES | Acinetobacter baumannii 872842 MIC [1]; 872842 | Acinetobacter baumannii DSM 30008 MIC ([2]; DSM 30008) | Escherichia coli 926415 MIC (Escherichia coli 926415; 926415) | Escherichia coli ATCC 25922 MIC ([3]; ATCC 25922) | Klebsiella pneumoniae 968733 MIC [4]; 968733 | Klebsiella pneumoniae SSI #3010 MIC ([5]; SSI #3010) | Pseudomonas aeruginosa ATCC 27853 MIC ([6]; ATCC 27853) | Hemolysis at 100 μg/mL ([7]; red cells of human, 1 h) | Acinetobacter baumannii 872842 MIC [1, 8] | Acinetobacter baumannii DSM 30008 MIC ([2]; Mueller-Hinton II broth) | Escherichia coli 926415 MIC (Escherichia coli 926415; [8]) | Escherichia coli ATCC 25922 MIC ([3]; Mueller-Hinton II broth) | Klebsiella pneumoniae 968733 MIC [4, 8] | Klebsiella pneumoniae SSI #3010 MIC ([5]; Mueller-Hinton II broth) | Pseudomonas aeruginosa ATCC 27853 MIC ([6]; Mueller-Hinton II broth) | Hemolysis at 100 μg/mL ([7]; 20% hRBC, 1 h at 37° C.)
CCCC[C@@H]1NC(=O)[C@@H]2CCCN2C(=O)[C@H]2CCCN2C(=O)[C@H](CO)NC(=O)[C@H](C)NC(=O)[C@H](C(C)(C)C)NC(=O)[C@@H](NC(=O)[C@@H](N)Cc2c[nH]c3ccccc23)CSSC[C@@H](C(=O)N[C@@H](CCN)C(=O)N[C@H](C(=O)N[C@@H](CCN)C(=O)N[C@H]2CCNC(=O)[C@H]([C@@H](C)O)NC(=O)[C@H](CCN)NC(=O)[C@H](CCN)NC(=O)[C@H](CC(C)C)NC(=O)[C@@H](CC(C)C)NC(=O)[C@H](CCN)NC2=O)[C@@H](C)O)NC(=O)[C@H](Cc2ccc(O)cc2)NC(=O)[C@H](CO)NC1=O [Ex. 15] (H-WC[Tle]AS[dP]P[Nle]SYC[Dab]T[Dab][Dab][Dab][dL]L[Dab][Dab]T; disulfide 2-11; lactam 15-C) | 0.25 µg/mL | 0.5 µg/mL | 0.125 µg/mL | 0.125 µg/mL | 2 µg/mL | 0.25 µg/mL | 1 µg/mL | 1% | – | – | – | – | – | – | – | –
CCCC[C@@H]1NC(=O)[C@@H]2CCCN2C(=O)[C@H]2CCCN2C(=O)[C@H](CO)NC(=O)[C@H](C)NC(=O)[C@H](C(C)(C)C)NC(=O)[C@@H](NC(=O)[C@@H](N)Cc2c[nH]c3ccccc23)CSSC[C@@H](C(=O)N[C@@H](CCN)C(=O)N[C@H](C(=O)N[C@@H](CN)C(=O)N[C@H]2CCNC(=O)[C@H]([C@@H](C)O)NC(=O)[C@H](CCN)NC(=O)[C@H](CCN)NC(=O)[C@H](CC(C)C)NC(=O)[C@@H](Cc3ccccc3)NC(=O)[C@H](CCN)NC2=O)[C@@H](C)O)NC(=O)[C@H](Cc2ccc(O)cc2)NC(=O)[C@H](CO)NC1=O [Ex. 16] (H-WC[Tle]AS[dP]P[Nle]SYC[Dab]T[Dap][Dab][Dab][dF]L[Dab][Dab]T; disulfide 2-11; lactam 15-C) | 0.25 µg/mL | 0.25 µg/mL | 0.125 µg/mL | 0.5 µg/mL | 0.375 µg/mL | 0.25 µg/mL | 0.25 µg/mL | 3% | – | – | – | – | – | – | – | –
CCCC[C@@H]1NC(=O)[C@@H]2CCCN2C(=O)[C@@H](C)NC(=O)[C@H](CO)NC(=O)[C@H](C)NC(=O)[C@H](C(C)(C)C)NC(=O)[C@@H](NC(=O)[C@H](Cc2c[nH]c3ccccc23)NC(C)=O)CSSC[C@@H](C(=O)N[C@@H](CCN)C(=O)N[C@H](C(=O)N[C@@H](CCN)C(=O)N[C@H]2CCNC(=O)[C@H]([C@@H](C)O)NC(=O)[C@H](CCN)NC(=O)[C@H](CCN)NC(=O)[C@H](CC(C)C)NC(=O)[C@@H](Cc3ccccc3)NC(=O)[C@H](CCN)NC2=O)[C@@H](C)O)NC(=O)[C@H](Cc2ccc(O)cc2)NC(=O)[C@H](CO)NC1=O [Ex. 17] (Ac-WC[Tle]AS[dA]P[Nle]SYC[Dab]T[Dab][Dab][Dab][dF]L[Dab][Dab]T; disulfide 2-11; lactam 15-C) | 0.25 µg/mL | 0.5 µg/mL | 1.5 µg/mL | 0.25 µg/mL | 0.5 µg/mL | 0.5 µg/mL | 0.5 µg/mL | 3% | – | – | – | – | – | – | – | –
CCCC[C@@H]1NC(=O)[C@@H]2CCCN2C(=O)[C@H]2CCCN2C(=O)[C@H]([C@@H](C)O)NC(=O)[C@H](CO)NC(=O)[C@H](C(C)(C)C)NC(=O)[C@@H](NC(=O)[C@H](Cc2c[nH]c3ccccc23)NC(C)=O)CSSC[C@@H](C(=O)N[C@@H](CCN)C(=O)N[C@H](C(=O)N[C@@H](CCN)C(=O)N[C@H]2CCNC(=O)[C@H]([C@@H](C)O)NC(=O)[C@H](CCN)NC(=O)[C@H](CCN)NC(=O)[C@H](CC(C)C)NC(=O)[C@@H](Cc3ccccc3)NC(=O)[C@H](CCN)NC2=O)[C@@H](C)O)NC(=O)[C@H](Cc2ccc(O)cc2)NC(=O)[C@H](C)NC1=O [Ex. 18] (Ac-WC[Tle]ST[dP]P[Nle]AYC[Dab]T[Dab][Dab][Dab][dF]L[Dab][Dab]T; disulfide 2-11; lactam 15-C) | – | – | – | – | – | – | – | – | 1 µg/mL | 0.25 µg/mL | 0.5 µg/mL | 0.125 µg/mL | 0.5 µg/mL | 2 µg/mL | 0.5 µg/mL | 6%
CCCC[C@@H]1NC(=O)[C@@H]2CCCN2C(=O)[C@H]2CCCN2C(=O)[C@H](CO)NC(=O)[C@H](C)NC(=O)[C@H](C(C)(C)C)NC(=O)[C@@H](NC(=O)[C@H](Cc2c[nH]c3ccccc23)NC(C)=O)CSSC[C@@H](C(=O)N[C@@H](CCN)C(=O)N[C@H](C(=O)N[C@@H](CN)C(=O)N[C@H]2CCNC(=O)[C@H]([C@@H](C)O)NC(=O)[C@H](CCN)NC(=O)[C@H](CCN)NC(=O)[C@H](CC(C)C)NC(=O)[C@@H](Cc3ccccc3)NC(=O)[C@H](CCN)NC2=O)[C@@H](C)O)NC(=O)[C@H](Cc2ccc(O)cc2)NC(=O)[C@H](CO)NC1=O [Ex. 20] (Ac-WC[Tle]AS[dP]P[Nle]SYC[Dab]T[Dap][Dab][Dab][dF]L[Dab][Dab]T; disulfide 2-11; lactam 15-C) | 0.5 µg/mL | 0.5 µg/mL | 0.25 µg/mL | 0.125 µg/mL | 1 µg/mL | 0.25 µg/mL | 0.25 µg/mL | 1% | – | – | – | – | – | – | – | –
CCCC[C@@H]1NC(=O)[C@@H]2CCCN2C(=O)[C@H]2CCCN2C(=O)[C@H](CO)NC(=O)[C@H](C)NC(=O)[C@H](C(C)(C)C)NC(=O)[C@@H](NC(=O)[C@H](Cc2c[nH]c3ccccc23)NC(C)=O)CSSC[C@@H](C(=O)N[C@@H](CCN)C(=O)N[C@H](C(=O)N[C@@H](CCN)C(=O)N[C@H]2CCNC(=O)[C@H]([C@@H](C)O)NC(=O)[C@H](CCN)NC(=O)[C@H](CCN)NC(=O)[C@H](CC(C)C)NC(=O)[C@@H](Cc3ccccc3)NC(=O)[C@H](CCN)NC2=O)[C@H](C)O)NC(=O)[C@H](Cc2ccc(O)cc2)NC(=O)[C@H](CO)NC1=O [Ex. 21] (Ac-WC[Tle]AS[dP]P[Nle]SYC[Dab][aThr][Dab][Dab][Dab][dF]L[Dab][Dab]T; disulfide 2-11; lactam 15-C) | 1 µg/mL | 0.25 µg/mL | 1 µg/mL | 0.25 µg/mL | 2 µg/mL | 0.25 µg/mL | 0.5 µg/mL | <1% | – | – | – | – | – | – | – | –
CCCC[C@@H]1NC(=O)[C@@H]2CCCN2C(=O)[C@H]2CCCN2C(=O)[C@H](CO)NC(=O)[C@H](C)NC(=O)[C@H](C(C)(C)C)NC(=O)[C@@H](NC(=O)[C@H](Cc2c[nH]c3ccccc23)NC(C)=O)CSSC[C@@H](C(=O)N[C@@H](CCN)C(=O)NCC(=O)N[C@@H](CCN)C(=O)N[C@H]2CCNC(=O)[C@H]([C@@H](C)O)NC(=O)[C@H](CCN)NC(=O)[C@H](CCN)NC(=O)[C@H](CC(C)C)NC(=O)[C@@H](Cc3ccccc3)NC(=O)[C@H](CCN)NC2=O)NC(=O)[C@H](Cc2ccc(O)cc2)NC(=O)[C@H](CO)NC1=O [Ex. 22] (Ac-WC[Tle]AS[dP]P[Nle]SYC[Dab]G[Dab][Dab][Dab][dF]L[Dab][Dab]T; disulfide 2-11; lactam 15-C) | 0.125 µg/mL | 0.5 µg/mL | 0.5 µg/mL | 0.125 µg/mL | 1 µg/mL | 0.25 µg/mL | 0.25 µg/mL | <1% | – | – | – | – | – | – | – | –
CCCC[C@@H]1NC(=O)[C@@H]2CCCN2C(=O)[C@H]2CCCN2C(=O)[C@H](CO)NC(=O)[C@H](C)NC(=O)[C@H](C(C)(C)C)NC(=O)[C@@H](NC(=O)[C@H](Cc2c[nH]c3ccccc23)NC(C)=O)CSSC[C@@H](C(=O)N[C@@H](CCN)C(=O)NC(C)(C)C(=O)N[C@@H](CCN)C(=O)N[C@H]2CCNC(=O)[C@H]([C@@H](C)O)NC(=O)[C@H](CCN)NC(=O)[C@H](CCN)NC(=O)[C@H](CC(C)C)NC(=O)[C@@H](Cc3ccccc3)NC(=O)[C@H](CCN)NC2=O)NC(=O)[C@H](Cc2ccc(O)cc2)NC(=O)[C@H](CO)NC1=O [Ex. 23] (Ac-WC[Tle]AS[dP]P[Nle]SYC[Dab][Aib][Dab][Dab][Dab][dF]L[Dab][Dab]T; disulfide 2-11; lactam 15-C) | 0.5 µg/mL | 0.5 µg/mL | 0.5 µg/mL | 0.25 µg/mL | 2 µg/mL | 0.25 µg/mL | 0.5 µg/mL | 1% | – | – | – | – | – | – | – | –
